Laboratory results from US20220390438A1, “Identification and Characterisation of Herbicides and Plant Growth Regulators” (priority 2019, published 2022).

Tests used:
[1] = tested on: wild type Marchantia plants; test: Lethal concentration determination: Marchantia spores plated on Johnson's medium agar supplemented with herbicide, 14-day old sporelings; format: in vivo, Marchantia polymorpha
Method: A lethal concentration of the herbicide hit was determined in the condition of the mutagenesis concentration. 20000 Marchantia spores were plated in 90 mm Petri dishes containing 25 mL of Johnson's medium containing 1.4% agar and supplemented with a range of herbicide hit concentrations ranging from 1 to 50000 nM. The lethal concentration was defined as the minimum concentration of herbicide hit sufficient to kill 100% of the wild type Marchantia plants (FIG. 11).
If no lethal concentration was observed, the highest concentration would be used in place of the lethal concentration provided that it caused the plants to show a phenotype distinct from the phenotype of untreated plants. For example, this alternative phenotype may be a strong reduction in growth (FIG. 12) or a marked change in the shape of the plants, or a change in plant pigmentation.
Marchantia polymorpha spores were irradiated with ultraviolet B irradiation and seven independent mutant lines resistant to the herbicide chlorsulfuron were identified. Chlorsulfuron resistance was determined by a Marchantia polymorpha plant that was alive two weeks following exposure to a lethal dose of Chlorsulfuron (0.1 ppm dose, i.e. a dose sufficient to kill 100% of wild-type plants).

Marchantia polymorpha = conditions: stated as known, like liverworts in general; cited from earlier work
[2] = 1000 μM herbicide, 14-day old sporelings in Petri dishes, three replicates

| SMILES | growth of sporelings [1, 2] | survival of sporelings [1, 2] | lethal dose (dose sufficient to kill 100% of wild-type plants) ([1]; wild-type Marchantia polymorpha, two weeks following exposure) [ppm] | sensitivity of Marchantia polymorpha to the herbicide (Marchantia polymorpha) |
| --- | --- | --- | --- | --- |
| COc1nc(C)nc(NC(=O)NS(=O)(=O)c2ccccc2Cl)n1 [Chlorsulfuron] | marked reduction in growth | have not all died | 0.1 | – |
| CNc1cnn(-c2cccc(C(F)(F)F)c2)c(=O)c1Cl [Norflurazon] | – | have all died | – | – |
| CP(=O)(O)CCC(N)C(=O)O (stereo not drawn) [glufosinate] | – | – | – | insensitive |
| O=C(O)CNCP(=O)(O)O [glyphosate] | – | – | – | insensitive |
